Laboratory results: PubChem BioAssay (NCI)
Several values for one entry are separate records, joined by “and”; a condition that tells them apart may be missing. Equal entries are not always repeated.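 Test compounds were applied to cells in 96-well plates for 48 hours at 5 doses. Abbreviation: GI50, concentration required for 50% inhibition of growth. TGI marks complete inhibition of growth.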

Each compound was assayed on HOP-62 NSCLC (assay: NCI anticancer screen, dose series, 48 h).
For `COc1ccc(OC)c(/C=C/c2nc(=S)n(-c3ccc(Cl)cc3)[nH]2)c1`, the GI50 was 6.48 µM and the TGI was > 100 µM. In the case of `COc1ccc2c(c1)C(=O)c1c-2c(Nc2ccccc2OC)nc2ccccc12`, the GI50 is reported as > 100 µM and the TGI is reported as > 100 µM. `COc1ccc2c(N)ncc(C#Cc3cc(C(=O)Nc4ccc(CN5CCN(C)CC5)c(C(F)(F)F)c4)cnc3C)c2c1` was tested, and the GI50 was 4.36 µM and the TGI was 33.2 µM. `COc1cc2c(N3CCN(C(=O)Nc4ccc(OC(C)C)cc4)CC3)ncnc2cc1OCCCN1CCCCC1` showed a GI50 of 14.4 µM and a TGI of 34.2 µM. `Nc1ncc(Cc2ccc3c(c2)OCO3)c(N)n1` was tested, and the TGI was > 100 µM. In the case of `c1ccc(-c2[nH]ncc2-c2ccnc(-c3ccc(OCCn4ccnc4)cc3)c2)nc1`, the GI50 is reported as > 25 µM and the TGI is reported as > 25 µM. In the case of `O=C1c2cccc(Oc3ccccc3)c2C(=O)c2cccc(Oc3ccccc3)c21`, the GI50 is reported as 5.05 µM and the TGI is reported as > 100 µM. `O=C(OCc1ccc2c(Br)cc(Br)c(O)c2n1)c1cc2ccccc2[nH]1` showed a GI50 of 1.34 µM and a TGI of 3.47 µM. In the case of `CC(C)(CO)CNC(=O)c1ccc2[nH]c(O)c(N=Nc3ccc(S(N)(=O)=O)cc3)c2c1`, the GI50 is reported as > 25 µM and the TGI is reported as > 25 µM. For `Cc1cc(O)c2c(c1)C(=O)C=CC2=O`, the TGI was 44.7 µM and 34.2 µM. With `CC1(C)N=C(N)N=C(N)N1c1ccc(CCC(=O)Nc2ccc(S(=O)(=O)F)cc2)cc1` the GI50 was 8.62 µM and the TGI was > 100 µM.

These compounds were tested on OVCAR-5 ovarian (assay: NCI anticancer screen, dose series, 48 h).
For `COc1ccc(OC)c(/C=C/c2nc(=S)n(-c3ccc(Cl)cc3)[nH]2)c1`, the GI50 was 70.3 µM and the TGI was > 100 µM. For `COc1ccc2c(c1)C(=O)c1c-2c(Nc2ccccc2OC)nc2ccccc12`, the GI50 was > 100 µM and the TGI was > 100 µM. In the case of `COc1ccc2c(N)ncc(C#Cc3cc(C(=O)Nc4ccc(CN5CCN(C)CC5)c(C(F)(F)F)c4)cnc3C)c2c1`, the GI50 is reported as 1.33 µM and the TGI is reported as 3.78 µM. In the case of `COc1cc2c(N3CCN(C(=O)Nc4ccc(OC(C)C)cc4)CC3)ncnc2cc1OCCCN1CCCCC1`, the GI50 is reported as 26.8 µM and the TGI is reported as > 90.1 µM. In the case of `Nc1ncc(Cc2ccc3c(c2)OCO3)c(N)n1`, the TGI is reported as > 100 µM. In the case of `c1ccc(-c2[nH]ncc2-c2ccnc(-c3ccc(OCCn4ccnc4)cc3)c2)nc1`, the GI50 is reported as > 25 µM and the TGI is reported as > 25 µM. `O=C1c2cccc(Oc3ccccc3)c2C(=O)c2cccc(Oc3ccccc3)c21` was tested, and the GI50 was > 100 µM and the TGI was > 100 µM. For `O=C(OCc1ccc2c(Br)cc(Br)c(O)c2n1)c1cc2ccccc2[nH]1`, the GI50 was 1.24 µM and the TGI was 2.68 µM. With `CC(C)(CO)CNC(=O)c1ccc2[nH]c(O)c(N=Nc3ccc(S(N)(=O)=O)cc3)c2c1` the GI50 was > 25 µM and the TGI was > 25 µM. `Cc1cc(O)c2c(c1)C(=O)C=CC2=O` was tested, and the TGI was 43.1 µM and 34.4 µM. With `CC1(C)N=C(N)N=C(N)N1c1ccc(CCC(=O)Nc2ccc(S(=O)(=O)F)cc2)cc1` the GI50 was 0.599 µM and the TGI was > 100 µM.

The compounds below were run on HCT-116 colon (assay: NCI anticancer screen, dose series, 48 h).
For `COc1ccc(OC)c(/C=C/c2nc(=S)n(-c3ccc(Cl)cc3)[nH]2)c1`, the GI50 was 4.05 µM and the TGI was > 100 µM. `COc1ccc2c(c1)C(=O)c1c-2c(Nc2ccccc2OC)nc2ccccc12` was tested, and the GI50 was > 100 µM and the TGI was > 100 µM. `COc1ccc2c(N)ncc(C#Cc3cc(C(=O)Nc4ccc(CN5CCN(C)CC5)c(C(F)(F)F)c4)cnc3C)c2c1` gave a GI50 of 0.483 µM and a TGI of 1.05 µM. For `COc1cc2c(N3CCN(C(=O)Nc4ccc(OC(C)C)cc4)CC3)ncnc2cc1OCCCN1CCCCC1`, the GI50 was 14 µM and the TGI was 57.3 µM. With `Nc1ncc(Cc2ccc3c(c2)OCO3)c(N)n1` the TGI was > 100 µM. For `c1ccc(-c2[nH]ncc2-c2ccnc(-c3ccc(OCCn4ccnc4)cc3)c2)nc1`, the GI50 was > 25 µM and the TGI was > 25 µM. In the case of `O=C1c2cccc(Oc3ccccc3)c2C(=O)c2cccc(Oc3ccccc3)c21`, the GI50 is reported as > 100 µM and the TGI is reported as > 100 µM. In the case of `O=C(OCc1ccc2c(Br)cc(Br)c(O)c2n1)c1cc2ccccc2[nH]1`, the GI50 is reported as 0.16 µM and the TGI is reported as 0.368 µM. `CC(C)(CO)CNC(=O)c1ccc2[nH]c(O)c(N=Nc3ccc(S(N)(=O)=O)cc3)c2c1` was tested, and the GI50 was > 25 µM and the TGI was > 25 µM. With `Cc1cc(O)c2c(c1)C(=O)C=CC2=O` the TGI was 10.2 µM and > 20.2 µM. In the case of `CC1(C)N=C(N)N=C(N)N1c1ccc(CCC(=O)Nc2ccc(S(=O)(=O)F)cc2)cc1`, the GI50 is reported as 0.425 µM and the TGI is reported as > 100 µM.

What follows are compounds tested on NCI-H460 lung (assay: NCI anticancer screen, dose series, 48 h).
`COc1ccc(OC)c(/C=C/c2nc(=S)n(-c3ccc(Cl)cc3)[nH]2)c1` was tested, and the GI50 was 4.53 µM and the TGI was > 100 µM. With `COc1ccc2c(c1)C(=O)c1c-2c(Nc2ccccc2OC)nc2ccccc12` the GI50 was > 100 µM and the TGI was > 100 µM. Work on `COc1ccc2c(N)ncc(C#Cc3cc(C(=O)Nc4ccc(CN5CCN(C)CC5)c(C(F)(F)F)c4)cnc3C)c2c1` yielded a GI50 of 0.476 µM and a TGI of 1.03 µM. In the case of `COc1cc2c(N3CCN(C(=O)Nc4ccc(OC(C)C)cc4)CC3)ncnc2cc1OCCCN1CCCCC1`, the GI50 is reported as 18.4 µM and the TGI is reported as > 61.3 µM. With `Nc1ncc(Cc2ccc3c(c2)OCO3)c(N)n1` the TGI was > 100 µM. For `c1ccc(-c2[nH]ncc2-c2ccnc(-c3ccc(OCCn4ccnc4)cc3)c2)nc1`, the GI50 was > 25 µM and the TGI was > 25 µM. In the case of `O=C1c2cccc(Oc3ccccc3)c2C(=O)c2cccc(Oc3ccccc3)c21`, the GI50 is reported as > 100 µM and the TGI is reported as > 100 µM. With `O=C(OCc1ccc2c(Br)cc(Br)c(O)c2n1)c1cc2ccccc2[nH]1` the GI50 was 1.53 µM and the TGI was 3.33 µM. `CC(C)(CO)CNC(=O)c1ccc2[nH]c(O)c(N=Nc3ccc(S(N)(=O)=O)cc3)c2c1` was tested, and the GI50 was > 25 µM and the TGI was > 25 µM. For `Cc1cc(O)c2c(c1)C(=O)C=CC2=O`, the TGI was 45.5 µM and 31.1 µM. In the case of `CC1(C)N=C(N)N=C(N)N1c1ccc(CCC(=O)Nc2ccc(S(=O)(=O)F)cc2)cc1`, the GI50 is reported as 0.253 µM and the TGI is reported as > 100 µM.

What follows are compounds tested on SK-OV-3 ovarian (assay: NCI anticancer screen, dose series, 48 h).
For `COc1ccc(OC)c(/C=C/c2nc(=S)n(-c3ccc(Cl)cc3)[nH]2)c1`, the GI50 was 9.4 µM and the TGI was > 100 µM. In the case of `COc1ccc2c(c1)C(=O)c1c-2c(Nc2ccccc2OC)nc2ccccc12`, the GI50 is reported as > 100 µM and the TGI is reported as > 100 µM. For `COc1ccc2c(N)ncc(C#Cc3cc(C(=O)Nc4ccc(CN5CCN(C)CC5)c(C(F)(F)F)c4)cnc3C)c2c1`, the GI50 was 1.7 µM and the TGI was 15 µM. `COc1cc2c(N3CCN(C(=O)Nc4ccc(OC(C)C)cc4)CC3)ncnc2cc1OCCCN1CCCCC1` gave a GI50 of 18.4 µM and a TGI of 39.9 µM. In the case of `Nc1ncc(Cc2ccc3c(c2)OCO3)c(N)n1`, the TGI is reported as > 100 µM. In the case of `c1ccc(-c2[nH]ncc2-c2ccnc(-c3ccc(OCCn4ccnc4)cc3)c2)nc1`, the GI50 is reported as > 25 µM and the TGI is reported as > 25 µM. In the case of `O=C1c2cccc(Oc3ccccc3)c2C(=O)c2cccc(Oc3ccccc3)c21`, the GI50 is reported as 9.39 µM and the TGI is reported as > 100 µM. `O=C(OCc1ccc2c(Br)cc(Br)c(O)c2n1)c1cc2ccccc2[nH]1` was tested, and the GI50 was 6.03 µM and the TGI was 18.6 µM. For `CC(C)(CO)CNC(=O)c1ccc2[nH]c(O)c(N=Nc3ccc(S(N)(=O)=O)cc3)c2c1`, the GI50 was > 25 µM and the TGI was > 25 µM. For `Cc1cc(O)c2c(c1)C(=O)C=CC2=O`, the TGI was > 84.2 µM. In the case of `CC1(C)N=C(N)N=C(N)N1c1ccc(CCC(=O)Nc2ccc(S(=O)(=O)F)cc2)cc1`, the GI50 is reported as > 70.2 µM and the TGI is reported as > 100 µM.
